The source of these data is the supplement of paper PMC11208160.

The data set in a line: recombinant UMI read abundance after kanamycin selection (control-corrected) (log10(CPM+1)); higher = more efficient recombination; extreme values may be limits of the assay; sequences stand for … in AGTGCAGAGAAAATCGGCCAGTTTTCTCTGCCTGCAGTCCGCATGCCGTGGGACCCCTTGGGTTCTAACCTGTTGCCTAGATTTATGCAGCGGACTGCCTTTCTCCCAAAGTGATAAACCGG…AGGTTGGTTTCACT; site = the 11-nt donor. The method in brief:
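Under IPTG (0.07 mM) plus kanamycin, or without selection, Escherichia coli carrying a UMI-tagged donor and donor-binding-loop pair library and a target plasmid for the IS621 bridge recombinase were plated in two replicates. Recombinant UMIs were PCR-amplified across the donor–target junction and sequenced. Counts were converted to CPM, averaged over replicates, scaled by control-derived factors and reported as log10(CPM+1).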
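Note: IS621 bridge recombinase in Escherichia coli cells against a fixed T5 target plasmid.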

As for “GCTTGCCCATGGACCGGTTTTCCCGGTAATCCGTATTTGAT (site GGTTGCCCTAT)”, the “recombinant UMI read abundance (log10)” value was determined as 0.0122. For the sequence “GCTTGCCCATGGACCGGTTTTCCCGGTAATCCGTATTTGAT (site GTTTGCCCTAT)”, the “recombinant UMI read abundance (log10)” value came to 0.00461. As to “GCTTGCCCATGGACCGGTTTTCCCGGTAATCCGTATTTGAT (site TCTTGCCCTAT)”, the “recombinant UMI read abundance (log10)” value is 0.0164.

For “GCTTGCGCATGGACCGGTTTTCCCGGTAATCCGTATTTGAT (site GCTTGCACTAT)”, the “recombinant UMI read abundance (log10)” value is 0.734. For the sequence “GCTTGCGCATGGACCGGTTTTCCCGGTAATCCGTATTTGAT (site GCTTGCCCTAT)”, the “recombinant UMI read abundance (log10)” value is 0.00863.

Take “GCTTGCGCATGGACCGGTTTTCCCGGTAATCCGTATTTGAT (site GCTTGCGCTAT)”: the “recombinant UMI read abundance (log10)” value turned out to be 1.72. The figure for “GCTTGCGCATGGACCGGTTTTCCCGGTAATCCGTATTTGAT (site GCTTGCTCTAT)” is 0. “GGAACCCCATGGACCGGTTTTCCCGGTAATCCGTATTTGTC (site GGAACCCCTGA)”: the “recombinant UMI read abundance (log10)” value was determined as 0.334. Consider “GGAAGCACATGGACCGGTTTTCCCGGTAATCCGTATTTGTG (site GGAAGCACTCA)”, for which the “recombinant UMI read abundance (log10)” value came out at 1.4. The figure for “GGAATTCCATGGACCGGTTTTCCCGGTAATCCGTATTTGCA (site GGAATTCCTTG)” is 0; for “GGACCACCATGGACCGGTTTTCCCGGTAATCCGTATTTGCG (site GGACCACCTCG)” it is 0.0308. The figure for “GGACGCTCATGGACCGGTTTTCCCGGTAATCCGTATTTGAG (site GGACGCTCTCT)” is 1.55; for “GGACGTCCATGGACCGGTTTTCCCGGTAATCCGTATTTGCC (site GGACGTCCTGG)” it is 1.75; for “GGACTAGCATGGACCGGTTTTCCCGGTAATCCGTATTTGCG (site GGACTAGCTCG)” it is 2.05. Turning to “GGACTCACATGGACCGGTTTTCCCGGTAATCCGTATTTGCA (site GGACTCACTTG)”, the “recombinant UMI read abundance (log10)” value was 2.37. Turning to “GGAGCCCCATGGACCGGTTTTCCCGGTAATCCGTATTTGCG (site GGAGCCCCTCG)”, the “recombinant UMI read abundance (log10)” value was 0.00647. For the sequence “GGAGCGACATGGACCGGTTTTCCCGGTAATCCGTATTTGGA (site GGAGCGACTTC)”, the “recombinant UMI read abundance (log10)” value was 0.237.

For the sequence “GGAGCGGCATGGACCGGTTTTCCCGGTAATCCGTATTTGGT (site GGAGAGGCTAC)”, the “recombinant UMI read abundance (log10)” value amounted to 0. “GGAGCGGCATGGACCGGTTTTCCCGGTAATCCGTATTTGGT (site GGAGCGGCTAC)”: the “recombinant UMI read abundance (log10)” value stood at 0.387. For the sequence “GGAGCGGCATGGACCGGTTTTCCCGGTAATCCGTATTTGGT (site GGAGGGGCTAC)”, the “recombinant UMI read abundance (log10)” value was 0.00705. With “GGAGCGGCATGGACCGGTTTTCCCGGTAATCCGTATTTGGT (site GGAGTGGCTAC)” the figure was 0.101. For the sequence “GGAGGTTCATGGACCGGTTTTCCCGGTAATCCGTATTTGAA (site GGAGGTTCTTT)”, the “recombinant UMI read abundance (log10)” value was 1.66.

For the sequence “GGAGTGCCATGGACCGGTTTTCCCGGTAATCCGTATTTGGT (site GGAGTGACTAC)”, the “recombinant UMI read abundance (log10)” value turned out to be 0.00343. For “GGAGTGCCATGGACCGGTTTTCCCGGTAATCCGTATTTGGT (site GGAGTGCCTAC)”, the “recombinant UMI read abundance (log10)” value was 0.0291. Regarding “GGAGTGCCATGGACCGGTTTTCCCGGTAATCCGTATTTGGT (site GGAGTGGCTAC)”, the “recombinant UMI read abundance (log10)” value was 0.00926.

For “GGAGTGCCATGGACCGGTTTTCCCGGTAATCCGTATTTGGT (site GGAGTGTCTAC)”, the “recombinant UMI read abundance (log10)” value amounted to 1.21. Regarding “GGAGTGGCATGGACCGGTTTTCCCGGTAATCCGTATTTGGA (site GGAGTGGCTAC)”, the “recombinant UMI read abundance (log10)” value stood at 0.0116.

In the case of “GGAGTGGCATGGACCGGTTTTCCCGGTAATCCGTATTTGGA (site GGAGTGGCTCC)”, the “recombinant UMI read abundance (log10)” value came out at 0.019. Take “GGAGTGGCATGGACCGGTTTTCCCGGTAATCCGTATTTGGA (site GGAGTGGCTGC)”: the “recombinant UMI read abundance (log10)” value came to 0. With “GGAGTGGCATGGACCGGTTTTCCCGGTAATCCGTATTTGGA (site GGAGTGGCTTC)” the figure was 0.645; with “GGATATACATGGACCGGTTTTCCCGGTAATCCGTATTTGCC (site GGATAAACTGG)”, 0. Regarding “GGATATACATGGACCGGTTTTCCCGGTAATCCGTATTTGCC (site GGATACACTGG)”, the “recombinant UMI read abundance (log10)” value turned out to be 0.982. With “GGATATACATGGACCGGTTTTCCCGGTAATCCGTATTTGCC (site GGATAGACTGG)”, the “recombinant UMI read abundance (log10)” value came out at 0.756. On to “GGATATACATGGACCGGTTTTCCCGGTAATCCGTATTTGCC (site GGATATACTGG)”, for which the “recombinant UMI read abundance (log10)” value was determined as 1.81.

For the sequence “GGATCACCATGGACCGGTTTTCCCGGTAATCCGTATTTGCT (site CGATCATCTAG)”, the “recombinant UMI read abundance (log10)” value worked out at 0. In the case of “GGATCACCATGGACCGGTTTTCCCGGTAATCCGTATTTGCT (site GGATCACCTAG)”, the “recombinant UMI read abundance (log10)” value came to 0.0128. “GGATCAGCATGGACCGGTTTTCCCGGTAATCCGTATTTGAA (site GGATCAGCTTT)”: the “recombinant UMI read abundance (log10)” value was found to be 1.19. With “GGATCATCATGGACCGGTTTTCCCGGTAATCCGTATTTGCC (site CGATCATCTAG)”, the “recombinant UMI read abundance (log10)” value is 0. As for “GGATCATCATGGACCGGTTTTCCCGGTAATCCGTATTTGCC (site GGATCATCTGG)”, the “recombinant UMI read abundance (log10)” value amounted to 0.722. Take “GGATCGTCATGGACCGGTTTTCCCGGTAATCCGTATTTGCC (site GGATCGTCTGG)”: the “recombinant UMI read abundance (log10)” value turned out to be 2.05. As for “GGATGCACATGGACCGGTTTTCCCGGTAATCCGTATTTGTA (site GAATGCACTTA)”, the “recombinant UMI read abundance (log10)” value was determined as 0.31. Regarding “GGATGCACATGGACCGGTTTTCCCGGTAATCCGTATTTGTA (site GCATGCACTTA)”, the “recombinant UMI read abundance (log10)” value is 0.0182. On to “GGATGCACATGGACCGGTTTTCCCGGTAATCCGTATTTGTA (site GGATGCACTTA)”, for which the “recombinant UMI read abundance (log10)” value was 1.62. As for “GGATGCACATGGACCGGTTTTCCCGGTAATCCGTATTTGTA (site GTATGCACTTA)”, the “recombinant UMI read abundance (log10)” value turned out to be 0.439.

Turning to “GGATGCTCATGGACCGGTTTTCCCGGTAATCCGTATTTGCT (site GGATGCTCTAG)”, the “recombinant UMI read abundance (log10)” value came out at 3. Consider “GGATTTACATGGACCGGTTTTCCCGGTAATCCGTATTTGAG (site GGATTTACTCT)”, for which the “recombinant UMI read abundance (log10)” value came out at 0.713. Take “GGCAAATCATGGACCGGTTTTCCCGGTAATCCGTATTTGCT (site GGCAAATCTAG)”: the “recombinant UMI read abundance (log10)” value stood at 0. With “GGCAACCCATGGACCGGTTTTCCCGGTAATCCGTATTTGTT (site GGCAACCCTAA)” the figure was 0.0163; with “GGCAACCCATGGACCGGTTTTCCCGGTAATCCGTATTTGTT (site GGCCACCCTAA)”, 0.0118.

Turning to “GGCAACCCATGGACCGGTTTTCCCGGTAATCCGTATTTGTT (site GGCGACCCTAA)”, the “recombinant UMI read abundance (log10)” value was 0.0135.

On to “GGCAACCCATGGACCGGTTTTCCCGGTAATCCGTATTTGTT (site GGCTACCCTAA)”, for which the “recombinant UMI read abundance (log10)” value worked out at 0.0252. On to “GGCAATACATGGACCGGTTTTCCCGGTAATCCGTATTTGAA (site GGCAATACTTT)”, for which the “recombinant UMI read abundance (log10)” value amounted to 0.862. With “GGCAATACATGGACCGGTTTTCCCGGTAATCCGTATTTGAA (site GGCAATCCTTT)” the figure was 0.00332. The figure for “GGCAATACATGGACCGGTTTTCCCGGTAATCCGTATTTGAA (site GGCAATGCTTT)” is 0; for “GGCAATACATGGACCGGTTTTCCCGGTAATCCGTATTTGAA (site GGCAATTCTTT)” it is 0; for “GGCAATCCATGGACCGGTTTTCCCGGTAATCCGTATTTGAA (site AGCAATCCTTT)” it is 0.00634. Take “GGCAATCCATGGACCGGTTTTCCCGGTAATCCGTATTTGAA (site CGCAATCCTTT)”: the “recombinant UMI read abundance (log10)” value worked out at 0.

Take “GGCAATCCATGGACCGGTTTTCCCGGTAATCCGTATTTGAA (site GACAATCCTTT)”: the “recombinant UMI read abundance (log10)” value was 0.

Regarding “GGCAATCCATGGACCGGTTTTCCCGGTAATCCGTATTTGAA (site GCCAATCCTTT)”, the “recombinant UMI read abundance (log10)” value was found to be 0. As for “GGCAATCCATGGACCGGTTTTCCCGGTAATCCGTATTTGAA (site GGAAATCCTTT)”, the “recombinant UMI read abundance (log10)” value turned out to be 0. With “GGCAATCCATGGACCGGTTTTCCCGGTAATCCGTATTTGAA (site GGCAAACCTTT)” the figure was 0; with “GGCAATCCATGGACCGGTTTTCCCGGTAATCCGTATTTGAA (site GGCAACCCTTT)”, 0.00936; with “GGCAATCCATGGACCGGTTTTCCCGGTAATCCGTATTTGAA (site GGCAAGCCTTT)”, 0.0191. In the case of “GGCAATCCATGGACCGGTTTTCCCGGTAATCCGTATTTGAA (site GGCAATACTTT)”, the “recombinant UMI read abundance (log10)” value is 0.0044. With “GGCAATCCATGGACCGGTTTTCCCGGTAATCCGTATTTGAA (site GGCAATCCTAT)” the figure was 0.

On to “GGCAATCCATGGACCGGTTTTCCCGGTAATCCGTATTTGAA (site GGCAATCCTCT)”, for which the “recombinant UMI read abundance (log10)” value came out at 0.0139. With “GGCAATCCATGGACCGGTTTTCCCGGTAATCCGTATTTGAA (site GGCAATCCTGT)”, the “recombinant UMI read abundance (log10)” value was found to be 0.

Turning to “GGCAATCCATGGACCGGTTTTCCCGGTAATCCGTATTTGAA (site GGCAATCCTTA)”, the “recombinant UMI read abundance (log10)” value amounted to 0.00549.
